Results as given in ChEMBL document CHEMBL4043173, “Aminosquaraines as potential photodynamic agents: Synthesis and evaluation of in vitro cytotoxicity” (Bioorg Med Chem Lett, 2017).

What was measured:
NCI-H460 = assay: Photocytotoxicity against human NCI-H460 cells assessed as growth inhibition preincubated for 24 hrs followed by irradiation with light at 23 to 24 uW/cm'2 for 30 mins measured after 24 hrs by SRB assay; assay type: functional; details: NCI-H460, light or radiation study
[1] = Dark toxicity against human MCF7 cells assessed as growth inhibition after 24 hrs by SRB assay; assay type: cell-based
MCF7 = assay: Photocytotoxicity against human MCF7 cells assessed as growth inhibition preincubated for 24 hrs followed by irradiation with light at 23 to 24 uW/cm'2 for 30 mins measured after 24 hrs by SRB assay; assay type: functional; details: MCF7, light or radiation study
[2] = Dark toxicity against human NCI-H460 cells assessed as growth inhibition after 24 hrs by SRB assay; assay type: cell-based
HepG2 = assay: Photocytotoxicity against human HepG2 cells assessed as growth inhibition preincubated for 24 hrs followed by irradiation with light at 23 to 24 uW/cm'2 for 30 mins measured after 24 hrs by SRB assay; assay type: functional; details: HepG2, light or radiation study
[3] = Dark toxicity against human HepG2 cells assessed as growth inhibition after 24 hrs by SRB assay; assay type: cell-based
HeLa = assay: Photocytotoxicity against human HeLa cells assessed as growth inhibition preincubated for 24 hrs followed by irradiation with light at 23 to 24 uW/cm'2 for 30 mins measured after 24 hrs by SRB assay; assay type: functional; details: light or radiation study
[4] = Dark toxicity against human HeLa cells assessed as growth inhibition after 24 hrs by SRB assay; assay type: cell-based
[5] = Dark toxicity against human MCF7 cells assessed as growth inhibition at 0.1 uM after 24 hrs by SRB assay relative to control; assay type: cell-based; details: read-out: GI
[6] = Dark toxicity against human NCI-H460 cells assessed as growth inhibition at 0.1 uM after 24 hrs by SRB assay relative to control; assay type: cell-based; details: read-out: GI
[7] = Dark toxicity against human HepG2 cells assessed as growth inhibition at 0.1 uM after 24 hrs by SRB assay relative to control; assay type: cell-based; details: read-out: GI
[8] = Dark toxicity against human HeLa cells assessed as growth inhibition at 0.1 uM after 24 hrs by SRB assay relative to control; assay type: cell-based; details: read-out: GI
[9] = Dark toxicity against porcine PLP2 cells assessed as growth inhibition after 24 hrs by SRB assay; details: Sus scrofa
[10] = Dark toxicity against porcine PLP2 cells assessed as growth inhibition at 0.1 uM after 24 hrs by SRB assay relative to control; details: Sus scrofa, read-out: GI
[11] = Photocytotoxicity against porcine PLP2 cells assessed as growth inhibition preincubated for 24 hrs followed by irradiation with light at 23 to 24 uW/cm'2 for 30 mins measured after 24 hrs by SRB assay; details: Sus scrofa

| Structure (SMILES) | GI50 (NCI-H460) [nM] | GI50 at 24 h [1] [nM] | GI50 (MCF7) [nM] | GI50 at 24 h [2] [nM] | GI50 (HepG2) [nM] | GI50 at 24 h [3] [nM] | GI50 (HeLa) [nM] | GI50 at 24 h [4] [nM] | inhibition at 24 h, 0.1 µM [5] [%] | inhibition at 24 h, 0.1 µM [6] [%] | inhibition at 24 h, 0.1 µM [7] [%] | inhibition at 24 h, 0.1 µM [8] [%] | GI50 at 24 h [9] [nM] | inhibition at 24 h, 0.1 µM [10] [%] | GI50 at 24 h [11] [nM] |
| --- | --- | --- | --- | --- | --- | --- | --- | --- | --- | --- | --- | --- | --- | --- | --- |
| CCN1/C(=C/C2=C(N(C)CCO)C(=C/c3sc4ccccc4[n+]3CC)/C2=O)Sc2ccccc21 | 455 | 737 | 239 | 767 | 271 | 7540 | 273 | 2640 | < 20 | < 20 | < 20 | < 20 | 717 | < 20 | 471 |
| CCN1/C(=C/C2=C(NC)C(=C/c3sc4ccccc4[n+]3CC)/C2=O)Sc2ccccc21 | 171 | 576 | 54 | 507 | 78 | 7080 | 71 | 2220 | < 20 | < 20 | < 20 | < 20 | 410 | < 20 | 126 |
| CCN1/C(=C/C2=C(NCCO)C(=C/c3sc4ccccc4[n+]3CC)/C2=O)Sc2ccccc21 | 440 | 7360 | 224 | 8820 | 110 | 7830 | 97 | > 10000 | < 20 | < 20 | < 20 | < 20 | 3730 | < 20 | 385 |
| CCN1/C(=C/C2=C(N)C(=C/c3sc4ccccc4[n+]3CC)/C2=O)Sc2ccccc21 | 8350 | > 10000 | 918 | > 10000 | 665 | 4570 | 288 | > 10000 | < 20 | < 20 | < 20 | < 20 | > 10000 | < 20 | 4980 |
| CCN1/C(=C/C2=C(N(CCO)CCO)C(=C/c3sc4ccccc4[n+]3CC)/C2=O)Sc2ccccc21 | 404 | 5340 | 257 | 940 | 722 | 4490 | 88 | > 10000 | < 20 | < 20 | < 20 | < 20 | 621 | < 20 | 340 |
